Laboratory results published in the supplement of paper PMC10307832.

Assays:
Assay in all cases: relative viability (nuclei count vs DMSO), 5 days (fraction); higher = more cells survive
BAY61-3606 + Pemetrexed = compound: COC1=C(C=C(C=C1)C2=CC3=NC=CN3C(=N2)NC4=C(C=CC=N4)C(=O)N)OC [BAY61-3606] + Nc1nc2[nH]cc(CCc3ccc(C(=O)N[C@@H](CCC(=O)O)C(=O)O)cc3)c2c(=O)[nH]1 [Pemetrexed] (partner 0.2 µM)
Outline: (§1)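 After 5 days of treatment, lung cancer cells in 1536-well plates were fixed and stained in a single step (final 0.05% Triton X-100, 1% formaldehyde, 1 ug/ml Hoechst) and their nuclei counted on 4× images. Treatment had been applied by pin tool the day after seeding as one drug alone or as a fixed anchor-drug dose with five library-drug doses (not always all listed) in √10 steps. Relative viability is the nuclei count of treated wells divided by that of vehicle wells, and values are medians of duplicate plates.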

BAY61-3606 + Linsitinib = compound: COC1=C(C=C(C=C1)C2=CC3=NC=CN3C(=N2)NC4=C(C=CC=N4)C(=O)N)OC [BAY61-3606] + C[C@]1(O)C[C@@H](c2nc(-c3ccc4ccc(-c5ccccc5)nc4c3)c3c(N)nccn32)C1 [Linsitinib] (partner 1 µM)
Outline: as §1

BAY61-3606 + Dasatinib = compound: COC1=C(C=C(C=C1)C2=CC3=NC=CN3C(=N2)NC4=C(C=CC=N4)C(=O)N)OC [BAY61-3606] + Cc1nc(Nc2ncc(C(=O)Nc3c(C)cccc3Cl)s2)cc(N2CCN(CCO)CC2)n1 [Dasatinib] (partner 0.075 µM)
Outline: as §1

Doxorubicin + Lapatinib = compound: COc1cccc2c1C(=O)c1c(O)c3c(c(O)c1C2=O)C[C@@](O)(C(=O)CO)C[C@@H]3O[C@H]1C[C@H](N)[C@H](O)[C@H](C)O1 [Doxorubicin] + CS(=O)(=O)CCNCc1ccc(-c2ccc3ncnc(Nc4ccc(OCc5cccc(F)c5)c(Cl)c4)c3c2)o1 [Lapatinib] (partner 2 µM)
Outline: as §1

Cell Line | relative viability (BAY61-3606 + Pemetrexed; first compound 0.02 µM) | relative viability (BAY61-3606 + Pemetrexed; first compound 0.06325 µM) | relative viability (BAY61-3606 + Pemetrexed; first compound 0.2 µM) | relative viability (BAY61-3606 + Pemetrexed; first compound 2 µM) | relative viability (BAY61-3606 + Pemetrexed; first compound 0.6325 µM) | relative viability (BAY61-3606 + Linsitinib; first compound 0.02 µM) | relative viability (BAY61-3606 + Linsitinib; first compound 0.06325 µM) | relative viability (BAY61-3606 + Linsitinib; first compound 0.2 µM) | relative viability (BAY61-3606 + Linsitinib; first compound 0.6325 µM) | relative viability (BAY61-3606 + Linsitinib; first compound 2 µM) | relative viability (BAY61-3606 + Dasatinib; first compound 0.02 µM) | relative viability (BAY61-3606 + Dasatinib; first compound 0.06325 µM) | relative viability (BAY61-3606 + Dasatinib; first compound 0.6325 µM) | relative viability (BAY61-3606 + Dasatinib; first compound 2 µM) | relative viability (Doxorubicin + Lapatinib; first compound 0.003162 µM) | relative viability (Doxorubicin + Lapatinib; first compound 0.01 µM) | relative viability (Doxorubicin + Lapatinib; first compound 0.03162 µM) | relative viability (Doxorubicin + Lapatinib; first compound 0.1 µM) | relative viability (BAY61-3606 + Dasatinib; first compound 0.2 µM) | relative viability (Doxorubicin + Lapatinib; first compound 0.001 µM)
NCI-H1648 | 0.803 | 0.622 | 0.79 | 0.874 | – | – | – | – | – | – | – | – | – | – | – | – | – | – | – | –
NCI-H1793 | 0.983 | 0.88 | 0.896 | 1.08 | 1.13 | 0.797 | 0.892 | 1 | 1.27 | 0.89 | 0.365 | 0.357 | 0.32 | 0.427 | 0.93 | 0.643 | 0.537 | 0.659 | – | –
SK-LU-1 | 0.974 | 1.02 | 1.01 | 0.661 | 0.968 | 1.13 | 1.21 | 0.987 | 0.984 | 0.482 | 0.2 | 0.148 | 0.169 | 0.152 | 1.09 | 0.669 | 0.523 | 0.55 | 0.148 | 0.822
HCC-44 | 0.613 | 0.692 | 0.682 | 0.651 | 0.659 | 0.636 | 0.695 | 0.722 | 0.762 | 0.751 | – | – | – | – | 1.02 | 0.954 | 0.979 | 0.815 | – | 0.988
201T | 0.358 | 0.366 | 0.339 | 0.32 | 0.325 | 1.05 | 0.975 | 0.972 | 1.01 | 1.07 | 0.545 | 0.509 | 0.548 | 0.571 | 0.968 | 1.04 | 1.01 | 1.03 | 0.546 | 0.942
HOP-62 | – | 0.354 | 0.323 | 0.249 | 0.332 | 1.11 | – | 0.961 | 1.11 | 0.713 | 0.744 | 0.729 | 0.844 | 0.634 | 1.15 | 1.02 | 1.1 | 0.853 | 0.691 | 0.811
NCI-H838 | 0.257 | 0.256 | 0.234 | 0.211 | 0.254 | 1.12 | 1 | 1.06 | 1.13 | 0.891 | 0.284 | 0.299 | 0.251 | 0.237 | 1.06 | 0.834 | 0.375 | 0.195 | 0.291 | 1.02
NCI-H2085 | 0.984 | 0.946 | 0.861 | 0.898 | 1.08 | 0.977 | 0.931 | 0.853 | 0.813 | 0.871 | 0.281 | 0.226 | 0.248 | 0.25 | 0.85 | 0.763 | 0.652 | 0.608 | 0.285 | 0.745
NCI-H661 | 0.963 | 1.01 | 0.84 | 0.703 | 0.931 | 0.868 | 0.484 | 0.627 | 0.616 | 0.405 | 0.985 | 0.835 | 0.886 | 0.702 | 0.515 | 0.492 | 0.498 | 0.493 | 0.861 | 0.506
NCI-H23 | 0.64 | 0.689 | 0.547 | 0.429 | 0.708 | 0.613 | 0.689 | 0.609 | 0.881 | 0.423 | 0.801 | 0.713 | 0.606 | 0.677 | 1.1 | 0.852 | 0.481 | 0.43 | 0.645 | –
A-427 | 1.05 | 1.02 | 0.992 | 0.908 | 0.892 | 1.14 | 1.07 | 1.06 | 1.06 | 1.15 | 0.722 | 0.681 | 0.765 | 0.647 | 0.985 | 1.06 | 1.04 | 1.02 | 0.673 | 1.1
NCI-H647 | 0.146 | 0.156 | 0.184 | 0.131 | 0.145 | 1.34 | 1.46 | 1.46 | 1.05 | 0.661 | 0.193 | 0.158 | 0.164 | 0.0812 | 1.24 | 0.643 | 0.119 | 0.0876 | 0.189 | 1.02
NCI-H1734 | 0.401 | 0.409 | 0.383 | 0.354 | 0.358 | 0.827 | 0.853 | 0.849 | 0.866 | 0.607 | 0.582 | 0.386 | 0.331 | 0.272 | 1.06 | 0.948 | 0.53 | 0.466 | 0.409 | 1.07
NCI-H1915 | 0.546 | 0.544 | 0.488 | 0.453 | 0.447 | 1.1 | 1.06 | 1.05 | 1.06 | 0.854 | 0.313 | 0.312 | 0.314 | 0.272 | 0.929 | 0.99 | 0.975 | 0.99 | 0.344 | 0.975
Calu-6 | – | – | – | – | – | 0.977 | 1.02 | 0.893 | 0.901 | 0.759 | – | – | – | – | 1.05 | 0.678 | 0.261 | 0.221 | – | 0.959
NCI-H441 | 0.263 | 0.236 | 0.271 | 0.242 | 0.238 | 0.646 | 0.628 | 0.626 | 0.535 | 0.38 | 0.614 | 0.655 | 0.521 | 0.438 | – | – | – | – | 0.54 | –
HCC-366 | 0.187 | 0.174 | 0.181 | 0.165 | 0.164 | 0.831 | 0.613 | 0.689 | 0.694 | 0.366 | 0.56 | 0.548 | 0.597 | 0.439 | 1.09 | 1 | 0.168 | 0.145 | 0.626 | –
EMC-BAC-2 | 0.464 | 0.438 | 0.449 | 0.523 | 0.438 | 0.837 | 0.862 | 0.852 | 0.876 | 0.833 | 0.359 | 0.323 | 0.298 | 0.276 | 0.956 | 0.801 | 0.415 | 0.269 | 0.353 | 0.943
